# Tested on: Bifidobacterium animalis ssp lactis I-2494
# Assay: Growth and survival of bifidobacteria in a drinking yogurt with yogurt ferments, acacia gum and/or cysteine, storage at 10° C.
# Format: cell-based
# Conditions: acacia gum 0.8%
# Description: A drinking yogurt (2.8% of proteins) is manufactured by reconstitution of milk powder, and supplemented with 0.8% (by weight) of acacia gum, as described in Example 1 above. This type of product is chosen for the trials since it is the one that poses the biggest problems in terms of maintaining the population of bifidobacteria during storage. The reconstituted milk, supplemented with acacia gum, is heat treated as described in Example 1 above, and homogenized (150-200 bar).
# After cooling to 38-40° C., Streptococcus thermophilus and Lactobacillus delbrueckii ssp. Bulgaricus are added in an amount of 5×10^6 CFU/ml of Streptococcus thermophilus, 5×10^6 CFU/ml of Lactobacillus bulgaricus. Bifidobacterium animalis ssp lactis I-2494 is added in the form of a ferment for direct inoculation, such as those described in application FR 0606421 supplemented with cysteine or not. The supplemented ferment used corresponds to the addition of 1.92×10^7 CFU/ml of Bifidobacterium animalis and 6.9 mg/l of cysteine.
# After inoculation, the fermentation is carried out at 38° C., and monitored using the CINAC® system (YSEBAERT) until the curd settling pH is obtained (4.3<pH<4.4).
# The curd settling is obtained by drawing off and cooling between 10-20° C., and then stirring.
# The product is then packaged in pots and then placed in a cold tunnel (4° C.).
# The populations are then counted at 2 h of storage at 15° C., and then 2, 8 14, 28 and 37 days of storage at 10° C.
# The same experiment was repeated with a product containing 2.7% of proteins, containing 0.8% of acacia gum, and inoculated with a ferment supplemented with cysteine, corresponding to the addition of 1.90×10^7 CFU/ml of bifidobacteria animalis and 7 mg/l of cysteine.
smiles,measurement,setting,value
"N[C@@H](CS)C(=O)O [Control Cysteine, cysteine]",Number of Bifidus at 2 h of storage,"2 h of storage at 15° C., drinking yogurt 2.8% proteins, cysteine 6.9 mg/l where present",2.1E+8 CFU/g
same,Number of Bifidus at D +2,"D+2, repeat, product 2.7% proteins, cysteine 7 mg/l where present",1.05E+08 CFU/g
same,Number of Bifidus at D +2,"D+2 at 10° C., 2.8% proteins, cysteine 6.9 mg/l where present",1.2E+8 CFU/g
same,Number of Bifidus at D +8,"D+8, repeat, 2.7% proteins, cysteine 7 mg/l where present",9.00E+07 CFU/g
same,Number of Bifidus at D +8,"D+8 at 10° C., 2.8% proteins, cysteine 6.9 mg/l where present",1.8E+8 CFU/g
same,Number of Bifidus at D +14,"D+14, repeat, 2.7% proteins, cysteine 7 mg/l where present",7.00E+07 CFU/g
same,Number of Bifidus at D +14,"D+14 at 10° C., 2.8% proteins, cysteine 6.9 mg/l where present",1.4E+8 CFU/g
same,Number of Bifidus at D +21,"D+21, repeat, 2.7% proteins, cysteine 7 mg/l where present",4.00E+07 CFU/g
same,Number of Bifidus at D +28,"D+28, repeat, 2.7% proteins, cysteine 7 mg/l where present",2.00E+07 CFU/g
same,Number of Bifidus at D +28,"D+28 at 10° C., 2.8% proteins, cysteine 6.9 mg/l where present",8.8E+7 CFU/g
same,Number of Bifidus at D +35,"D+35, repeat, 2.7% proteins, cysteine 7 mg/l where present",6.00E+06 CFU/g
same,Number of Bifidus at D +37,"D+37 at 10° C., 2.8% proteins, cysteine 6.9 mg/l where present",7.8E+7 CFU/g
same,Number of Bifidus at D +52,"D+52, repeat, 2.7% proteins, cysteine 7 mg/l where present",3.00E+06 CFU/g
